Reference: patent publication US20260207578A1, “COMPOUND BASED ON SULFUR/OXYGEN SUBSTITUTED GLUTARIMIDE-BASED ISOINDOLINONE SKELETON AND USE THEREOF” (Gluetacs Therapeutics (Shanghai) Co., LTD., priority 2022, published 2026)

Experiments:
[1] = molecular target: T1, human Cereblon WT GST-tagged protein (Homo sapiens, UniProt Q96SW2); test: CRBN-binding affinity, HTRF (CEREBLON BINDING kit); conditions: displacement of Thalidomide-Re reagent, 3 hours at room temperature
T1 construct: purchased CISBIO 64BDCRBNPEH
Description: The CEREBLON BINDING kits (specification: 10,000 tests; product number: Catalog #64BDCRBNPEH; CISBIO company) was used to determine the CRBN binding ability of the compounds to be tested through a HTRF method (homogeneous time-resolved fluorescence). The specific methods are as follows: • 1. […] Then, 2.5 μL of human Cereblon WT GST-tagged protein solution was added to each well. Finally, 5 μL of the thoroughly mixed Thalidomide-Re reagent and GST Eu antibody working solution were added to each of the aforementioned wells. […] The blank control wells were sequentially added with 2.5 μL of diluent #9 (1×) solution, 2.5 μL of PROTAC binding buffer, and 5 μL of thoroughly mixed Thalidomide-Re reagent and GST Eu antibody working solution. • 4.
OD 620 nmcompound is the absorbance value of each well of the compounds to be tested of the present disclosure at an emission wavelength of 620 nm. […] OD 620 nmcontrol is the absorbance value of the blank control well at an emission wavelength of 620 nm. […] OD 620 nmStd0 is the absorbance value of the solvent control well at an emission wavelength of 620 nm.

[2] = molecular target: T2, GSPT1 (Homo sapiens, UniProt P15170+Q96SW2); test: Western-blot assay, substrate protein in hPBMCs; assay type: cell-based; conditions: hPBMC cells, 24 hours, tested at 50 nM and 500 nM, table does not say which
T2 construct: endogenous in cells; host or cells: human PBMCs (Milecell Biotechnologies)
Description: (§1) The effect of the compounds of the present disclosure on the expression of target proteins in cells was detected using conventional Western blot analysis.
(§2) Human peripheral blood mononuclear cells (hPBMCs) at a density of 1×10^6 cells/mL were thawed according to the PBMC Recovery Protocol (Milecell Biotechnologies Inc, Shanghai).
(§3) After 24 hours of compounds treatment, cells were harvested and lysed in RIPA protein lysate containing phosphatase inhibitors on ice for 30-60 min, followed by centrifugation. The supernatant was aspirated as the extracted total cell protein. The protein concentration of the supernatant was determined using the conventional BCA (Bicinchoninic Acid) assay. The supernatant was then mixed with 4× SDS sample loading buffer, denatured at 95° C. for 5 minutes, and then subjected to SDS-PAGE electrophoresis on a polyacrylamide gel. Proteins were then transferred to a nitrocellulose (NC) membrane, blocked at room temperature for 1-2 h, and processed for antibody incubation and detection according to the manufacturer's instructions (Cell Signaling Technology).
(§4) Half-Maximal Degradation Concentration value (the drug concentration required for degrading proteins by 50%, abbreviated as DC50) reads method: comparing the grayscale values of Western blot bands from drug-treated samples with those from blank DMSO-treated controls, and identifying the drug concentration range at which the grayscale value is half that of the DMSO-treated control bands.
(§5) DC50 values can be calculated using ImageJ software to measure grayscale values of Western blot bands from drug-treated samples. The concentration-response curve is fitted to estimate the drug concentration corresponding to half the grayscale value.
(§6) Target protein remaining (%) refers to the percentage of target protein remaining in hPBMC cells after treatment with protein degrader compounds.
(§7) Calculation method for protein remaining (%): Use ImageJ software to measure grayscale values of Western blot bands from drug (protein degrader)-treated samples. The grayscale value of drug-treated bands is divided by that of internal control protein bands, and the resulting quotient is normalized to obtain the relative percentage of remaining target protein after protein degrader treatment.
(§8) Target protein degradation rate (%)=100%−target protein remaining (%).

[3] = molecular target: T3, IKZF2 (Homo sapiens, UniProt Q96SW2+Q9UKS7); test: Western-blot assay, substrate protein in hPBMCs; assay type: cell-based; conditions: hPBMC cells, 24 hours, tested at 50 nM and 500 nM, table does not say which
T3 construct: endogenous in cells; host or cells: human PBMCs (Milecell Biotechnologies)
Description: as §1, §2, §3, §4, §5, §6, §7, §8

[4] = molecular target: T4, CK1α (Homo sapiens, UniProt P48729+Q96SW2); test: Western-blot assay, substrate protein in hPBMCs; assay type: cell-based; conditions: hPBMC cells, 24 hours, tested at 50 nM and 500 nM, table does not say which
T4 construct: endogenous in cells; host or cells: human PBMCs (Milecell Biotechnologies)
Description: as §1, §2, §3, §4, §5, §6, §7, §8

[5] = molecular target: T5, Wee1 (Homo sapiens, UniProt P30291+Q96SW2); test: Western-blot assay, substrate protein in hPBMCs; assay type: cell-based; conditions: hPBMC cells, 24 hours, tested at 50 nM and 500 nM, table does not say which
T5 construct: endogenous in cells; host or cells: human PBMCs (Milecell Biotechnologies)
Description: as §1, §2, §3, §4, §5, §6, §7, §8

T1 sequence (Q96SW2 whole entry): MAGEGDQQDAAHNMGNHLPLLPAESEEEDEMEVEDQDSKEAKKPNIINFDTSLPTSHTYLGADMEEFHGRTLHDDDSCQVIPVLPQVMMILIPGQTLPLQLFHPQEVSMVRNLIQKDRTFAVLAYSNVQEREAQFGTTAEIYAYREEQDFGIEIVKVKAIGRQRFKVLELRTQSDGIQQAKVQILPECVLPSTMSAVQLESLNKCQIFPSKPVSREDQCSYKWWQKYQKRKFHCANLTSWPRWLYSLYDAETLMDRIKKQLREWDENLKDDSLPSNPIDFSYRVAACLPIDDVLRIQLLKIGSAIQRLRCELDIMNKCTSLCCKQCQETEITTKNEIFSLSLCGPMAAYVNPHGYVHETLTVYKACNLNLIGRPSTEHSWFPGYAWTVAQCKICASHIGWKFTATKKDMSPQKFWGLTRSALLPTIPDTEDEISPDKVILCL
T4 sequence (P48729 whole entry): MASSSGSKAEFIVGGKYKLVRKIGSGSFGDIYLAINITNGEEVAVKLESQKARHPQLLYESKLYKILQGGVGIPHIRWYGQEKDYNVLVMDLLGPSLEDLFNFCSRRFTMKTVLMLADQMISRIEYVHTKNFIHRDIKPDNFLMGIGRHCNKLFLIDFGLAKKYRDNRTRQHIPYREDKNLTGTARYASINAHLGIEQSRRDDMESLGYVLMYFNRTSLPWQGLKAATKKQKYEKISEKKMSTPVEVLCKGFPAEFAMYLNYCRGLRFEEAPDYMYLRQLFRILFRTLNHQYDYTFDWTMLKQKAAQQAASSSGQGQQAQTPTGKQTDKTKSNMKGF
T4 sequence (Q96SW2 whole entry): as the sequence (Q96SW2 whole entry) above
T4 sequence (Q16531 whole entry partner): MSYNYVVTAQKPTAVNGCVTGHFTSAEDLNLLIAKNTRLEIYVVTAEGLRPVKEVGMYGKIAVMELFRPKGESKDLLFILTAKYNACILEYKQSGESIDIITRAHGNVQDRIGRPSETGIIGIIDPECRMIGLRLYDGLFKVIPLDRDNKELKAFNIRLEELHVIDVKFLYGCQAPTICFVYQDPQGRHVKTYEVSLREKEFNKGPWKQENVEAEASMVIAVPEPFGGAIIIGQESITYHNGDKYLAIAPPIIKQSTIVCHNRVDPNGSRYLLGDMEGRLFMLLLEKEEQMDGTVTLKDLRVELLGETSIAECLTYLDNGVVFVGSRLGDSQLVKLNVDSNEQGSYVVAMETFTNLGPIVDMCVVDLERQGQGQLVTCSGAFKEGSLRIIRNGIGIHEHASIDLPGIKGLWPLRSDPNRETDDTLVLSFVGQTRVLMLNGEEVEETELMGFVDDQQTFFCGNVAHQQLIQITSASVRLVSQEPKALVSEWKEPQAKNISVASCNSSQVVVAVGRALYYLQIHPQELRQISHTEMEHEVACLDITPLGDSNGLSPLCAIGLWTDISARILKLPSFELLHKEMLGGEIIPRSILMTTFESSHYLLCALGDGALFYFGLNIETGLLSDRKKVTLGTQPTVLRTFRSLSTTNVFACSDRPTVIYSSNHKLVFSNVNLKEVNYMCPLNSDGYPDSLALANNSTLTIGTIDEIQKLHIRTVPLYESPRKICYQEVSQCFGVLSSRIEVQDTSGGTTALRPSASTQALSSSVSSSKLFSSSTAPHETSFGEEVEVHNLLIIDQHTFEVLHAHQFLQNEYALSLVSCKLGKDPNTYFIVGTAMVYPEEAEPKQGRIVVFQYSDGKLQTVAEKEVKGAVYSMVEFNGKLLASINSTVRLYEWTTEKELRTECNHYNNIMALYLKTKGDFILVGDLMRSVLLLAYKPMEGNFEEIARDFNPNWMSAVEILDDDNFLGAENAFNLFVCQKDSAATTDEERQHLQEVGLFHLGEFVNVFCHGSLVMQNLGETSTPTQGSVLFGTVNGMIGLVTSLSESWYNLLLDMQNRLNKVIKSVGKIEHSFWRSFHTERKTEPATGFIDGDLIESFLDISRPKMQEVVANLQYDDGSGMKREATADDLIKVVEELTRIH
T2 sequence (P15170 whole entry): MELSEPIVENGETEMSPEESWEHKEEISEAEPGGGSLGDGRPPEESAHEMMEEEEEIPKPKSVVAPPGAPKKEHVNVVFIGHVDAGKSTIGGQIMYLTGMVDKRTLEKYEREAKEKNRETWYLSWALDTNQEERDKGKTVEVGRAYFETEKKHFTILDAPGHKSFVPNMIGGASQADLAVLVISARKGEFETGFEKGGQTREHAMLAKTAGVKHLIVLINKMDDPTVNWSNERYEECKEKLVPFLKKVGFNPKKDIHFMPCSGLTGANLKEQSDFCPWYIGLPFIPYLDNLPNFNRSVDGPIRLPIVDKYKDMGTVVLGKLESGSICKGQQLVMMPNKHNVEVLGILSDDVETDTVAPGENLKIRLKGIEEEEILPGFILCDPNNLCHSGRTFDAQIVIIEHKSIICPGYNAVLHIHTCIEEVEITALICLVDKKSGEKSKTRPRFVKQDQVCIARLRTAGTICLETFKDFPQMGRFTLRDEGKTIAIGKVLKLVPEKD
T2 sequence (Q96SW2 whole entry): as the sequence (Q96SW2 whole entry) above
T2 sequence (Q16531 whole entry partner): as the sequence (Q16531 whole entry partner) above
T5 sequence (P30291 whole entry): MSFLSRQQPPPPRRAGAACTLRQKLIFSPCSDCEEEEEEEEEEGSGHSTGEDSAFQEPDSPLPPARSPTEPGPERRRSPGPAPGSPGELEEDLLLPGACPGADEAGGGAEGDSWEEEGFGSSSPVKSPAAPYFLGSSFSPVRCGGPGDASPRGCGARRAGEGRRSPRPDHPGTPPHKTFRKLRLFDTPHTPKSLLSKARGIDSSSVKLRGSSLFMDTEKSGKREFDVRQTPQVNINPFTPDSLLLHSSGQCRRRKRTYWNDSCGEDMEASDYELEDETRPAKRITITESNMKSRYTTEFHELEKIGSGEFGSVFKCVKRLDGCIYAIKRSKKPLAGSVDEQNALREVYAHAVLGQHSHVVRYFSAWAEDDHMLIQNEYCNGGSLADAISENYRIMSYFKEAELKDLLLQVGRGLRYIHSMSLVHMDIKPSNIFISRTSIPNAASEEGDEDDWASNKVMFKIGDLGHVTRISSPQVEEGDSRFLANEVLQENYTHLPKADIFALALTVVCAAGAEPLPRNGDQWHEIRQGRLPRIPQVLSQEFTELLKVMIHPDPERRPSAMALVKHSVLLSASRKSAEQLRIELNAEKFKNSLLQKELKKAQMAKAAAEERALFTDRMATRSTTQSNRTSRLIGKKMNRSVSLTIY
T5 sequence (Q96SW2 whole entry): as the sequence (Q96SW2 whole entry) above
T5 sequence (Q16531 whole entry partner): as the sequence (Q16531 whole entry partner) above
T3 sequence (Q9UKS7 whole entry): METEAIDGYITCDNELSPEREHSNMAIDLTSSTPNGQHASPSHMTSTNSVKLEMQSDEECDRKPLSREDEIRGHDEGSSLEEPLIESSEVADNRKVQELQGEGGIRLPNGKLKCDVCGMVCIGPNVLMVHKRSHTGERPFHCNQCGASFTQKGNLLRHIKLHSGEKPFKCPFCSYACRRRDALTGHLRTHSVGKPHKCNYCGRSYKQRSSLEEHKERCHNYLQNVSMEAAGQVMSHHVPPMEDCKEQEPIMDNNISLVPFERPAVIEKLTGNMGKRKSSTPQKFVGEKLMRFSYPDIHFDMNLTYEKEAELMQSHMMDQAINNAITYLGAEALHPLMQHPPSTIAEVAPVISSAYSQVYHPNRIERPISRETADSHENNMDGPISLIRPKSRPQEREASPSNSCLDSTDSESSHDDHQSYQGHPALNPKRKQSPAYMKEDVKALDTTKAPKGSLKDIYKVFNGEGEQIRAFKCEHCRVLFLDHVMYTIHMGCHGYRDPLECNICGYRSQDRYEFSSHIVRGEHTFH
T3 sequence (Q96SW2 whole entry): as the sequence (Q96SW2 whole entry) above
T3 sequence (Q16531 whole entry partner): as the sequence (Q16531 whole entry partner) above

Row | Compound | IC50 [1] | substrate protein remaining % [2] | substrate protein remaining % [3] | substrate protein remaining % [4] | substrate protein remaining % [5]
1 | O=C1CCC(N2Cc3cc(SC4CCN(C(c5ccccc5)c5ccccc5)C4)ccc3C2=O)C(=O)N1 (stereo not shown) [GT-06196, 3-(5-((1-benzhydrylpyrrolidin-3-yl)thio)-1-oxoisoindolin-2-yl)piperidine-2,6-dione] | 500 to 1000 nM | A (0%≤ substrate protein remaining % ≤80%) | A (0%≤ substrate protein remaining % ≤80%) | A (0%≤ substrate protein remaining % ≤80%) | 
2 | CC1(C)CCC(C(=O)N2C[C@H]3CC(Oc4ccc5c(c4)CN(C4CCC(=O)NC4=O)C5=O)C[C@@H]3C2)=C(c2ccc(Cl)cc2)C1 (stereo partly drawn) [GT-07025, 3-(5-(((3aS,6aS)-2-(4′-chloro-5,5-dimethyl-3,4,5,6-tetrahydro-[1,1′-biphenyl]-2-carbonyl)octahydro-cyclopenta[c]pyrrol-5-yl)oxy)-1-oxoisoindolin-2-yl)piperidine-2,6-dione] | < 500 nM |  | A (0%≤ substrate protein remaining % ≤80%) | A (0%≤ substrate protein remaining % ≤80%) | 
3 | CC1(C)CCC(CN2CC3CC(Sc4ccc5c(c4)CN(C4CCC(=O)NC4=O)C5=O)CC3C2)=C(c2ccc(Cl)cc2)C1 (stereo not shown) [GT-06813, 3-(5-((2-((4′-chloro-5,5-dimethyl-3,4,5,6-tetrahydro-[1,1′-biphenyl]-2-yl)methyl)octahydro-cyclopenta[c]pyrrol-5-yl)thio)-1-oxoisoindolin-2-yl)piperidine-2,6-dione] | 1000 to 1900 nM | A (0%≤ substrate protein remaining % ≤80%) | A (0%≤ substrate protein remaining % ≤80%) |  | A (0%≤ substrate protein remaining % ≤80%)
4 | O=C1CCC(N2Cc3cc(SC4CCCN(Cc5ccccc5-c5ccc(Cl)cc5)CC4)ccc3C2=O)C(=O)N1 (stereo not shown) [GT-06643, 3-(5-((1-((4′-chloro-[1,1′-biphenyl]-2-yl)methyl)azepan-4-yl)thio)-1-oxoisoindolin-2-yl)piperidine-2,6-dione] | 1000 to 1900 nM |  | A (0%≤ substrate protein remaining % ≤80%) |  | A (0%≤ substrate protein remaining % ≤80%)
5 | O=C1CCC(N2Cc3cc(SC4CC5(CCNCC5)C4)ccc3C2=O)C(=O)N1 (stereo not shown) [GT-06997, 3-(5-((7-azaspiro[3.5]nonan-2-yl)thio)-1-oxoisoindolin-2-yl)piperidine-2,6-dione] | 500 to 1000 nM | A (0%≤ substrate protein remaining % ≤80%) | A (0%≤ substrate protein remaining % ≤80%) |  | 
6 | O=C1CCC(N2Cc3cc(SC4C[C@@H]5CN(C(=O)c6ccccc6-c6ccc(Cl)cc6)C[C@@H]5C4)ccc3C2=O)C(=O)N1 (stereo partly drawn) [GT-07024, 3-(5-(((3aR,6aS)-2-(4′-chloro-[1,1′-biphenyl]-2-carbonyl)octahydro-cyclopenta[c]pyrrol-5-yl)thio)-1-oxoisoindolin-2-yl)piperidine-2,6-dione] | < 500 nM |  | A (0%≤ substrate protein remaining % ≤80%) |  | A (0%≤ substrate protein remaining % ≤80%)
7 | O=C1CCC(N2Cc3cc(SC4CC5CN(Cc6ccccc6-c6ccc(Cl)cc6)CC5C4)ccc3C2=O)C(=O)N1 (stereo not shown) [GT-06914, 3-(5-((2-((4′-chloro-[1,1′-biphenyl]-2-yl)methyl)octahydrocyclopenta[c]pyrrol-5-yl)thio)-1-oxoisoindolin-2-yl)piperidine-2,6-dione] | 1000 to 1900 nM |  | A (0%≤ substrate protein remaining % ≤80%) |  | A (0%≤ substrate protein remaining % ≤80%)

More lines, main results first:

Row | IC50 [1] | Compound | substrate protein remaining % [2] | substrate protein remaining % [3] | substrate protein remaining % [4] | substrate protein remaining % [5]
8 | 1000 to 1900 nM | CC1(C)CCC(C(=O)N2CCCC(Sc3ccc4c(c3)CN(C3CCC(=O)NC3=O)C4=O)CC2)=C(c2ccc(Cl)cc2)C1 (stereo not shown) [GT-06642, 3-(5-((1-(4′-chloro-5,5-dimethyl-3,4,5,6-tetrahydro-[1,1′-biphenyl]-2-carbonyl)azepan-4-yl)thio)-1-oxoisoindolin-2-yl)piperidine-2,6-dione] | A (0%≤ substrate protein remaining % ≤80%) | A (0%≤ substrate protein remaining % ≤80%) |  | 
9 | < 500 nM | O=C1CCC(N2Cc3cc(OC4CN(C(c5ccccc5F)c5ccccc5F)C4)ccc3C2=O)C(=O)N1 (stereo not shown) [GT-06759, 3-(5-((1-(bis(2-fluorophenyl)methyl)azetidin-3-yl)oxy)-1-oxoisoindolin-2-yl)piperidine-2,6-dione] | A (0%≤ substrate protein remaining % ≤80%) | A (0%≤ substrate protein remaining % ≤80%) |  | 
10 | 500 to 1000 nM | CC1(C)CCC(C(=O)N2CCC(Oc3ccc4c(c3)CN(C3CCC(=O)NC3=O)C4=O)CC2)=C(c2ccc(Cl)cc2)C1 (stereo not shown) [GT-06192, 3-(5-((1-(4′-chloro-5,5-dimethyl-3,4,5,6-tetrahydro-[1,1′-biphenyl]-2-carbonyl)piperidin-4-yl)oxy)-1-oxoisoindolin-2-yl)piperidine-2,6-dione] |  | A (0%≤ substrate protein remaining % ≤80%) |  | A (0%≤ substrate protein remaining % ≤80%)
11 | < 500 nM | O=C1CCC(N2Cc3cc(OC4CN(C(c5ccccc5)c5ccccn5)C4)ccc3C2=O)C(=O)N1 (stereo not shown) [GT-06559, 3-(1-oxo-5-((1-(phenyl(pyridin-2-yl)methyl)azetidin-3-yl)oxy)isoindolin-2-yl)piperidine-2,6-dione] | A (0%≤ substrate protein remaining % ≤80%) | A (0%≤ substrate protein remaining % ≤80%) | A (0%≤ substrate protein remaining % ≤80%) | A (0%≤ substrate protein remaining % ≤80%)
12 | < 500 nM | O=C1CCC(N2Cc3cc(SC4CN(C(c5ccccc5)c5ccccn5)C4)ccc3C2=O)C(=O)N1 (stereo not shown) [GT-06518, 3-(1-oxo-5-((1-(phenyl(pyridin-2-yl)methyl)azetidin-3-yl)thio)isoindolin-2-yl)piperidine-2,6-dione] | A (0%≤ substrate protein remaining % ≤80%) | A (0%≤ substrate protein remaining % ≤80%) | A (0%≤ substrate protein remaining % ≤80%) | 
13 | 1000 to 1900 nM | O=C1CCC(N2Cc3cc(OC4CCN(Cc5ccccc5-c5ccc(Cl)cc5)CC4)ccc3C2=O)C(=O)N1 (stereo not shown) [GT-06193, 3-(5-((1-((4′-chloro-[1,1′-biphenyl]-2-yl)methyl)piperidin-4-yl)oxy)-1-oxoisoindolin-2-yl)piperidine-2,6-dione] | A (0%≤ substrate protein remaining % ≤80%) | A (0%≤ substrate protein remaining % ≤80%) |  | A (0%≤ substrate protein remaining % ≤80%)
14 | < 500 nM | CC1(C)CC(c2ccc(Cl)cc2)=C(CN2CC(Oc3ccc4c(c3)CN(C3CCC(=O)NC3=O)C4=O)C2)CO1 (stereo not shown) [GT-06561, 3-(5-((1-((4-(4-chlorophenyl)-6,6-dimethyl-5,6-dihydro-2H-pyran-3-yl)methyl)azetidin-3-yl)oxy)-1-oxoisoindolin-2-yl)piperidine-2,6-dione] |  | A (0%≤ substrate protein remaining % ≤80%) |  | A (0%≤ substrate protein remaining % ≤80%)
15 | < 500 nM | O=C1CCC(N2Cc3cc(SC4CN(CC5=C(c6ccc(F)cc6)CCCC5)C4)ccc3C2=O)C(=O)N1 (stereo not shown) [GT-06301, 3-(5-((1-((4′-fluoro-3,4,5,6-tetrahydro-[1,1′-biphenyl]-2-yl)methyl)azetidin-3-yl)thio)-1-oxoisoindolin-2-yl)piperidine-2,6-dione] | A (0%≤ substrate protein remaining % ≤80%) | A (0%≤ substrate protein remaining % ≤80%) |  | A (0%≤ substrate protein remaining % ≤80%)
